Measurements reported in patent publication US20250197420A1, “MACROCYCLIC COMPOUNDS, COMPOSITIONS, AND METHODS OF USING THEREOF” (Sionna Therapeutics Inc., priority 2022, published 2025).

What was measured:
[1] = system: Primary human bronchial epithelial cells from a ΔF508 homozygous CF donor (CF-HBE cells); test: TECC24 recording of CFTR-mediated transepithelial chloride transport, AUC fold over benchmark VX-809 @10 μM; format: cell-based; settings: 48 hours incubation, AUC of forskolin-stimulated IEQ
Summary of the method: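 Values are the forskolin-to-inhibitor-172 AUC of equivalent Cl− current, derived from transepithelial voltage and resistance, divided by the VX-809 AUC and binned as A <3, B 3–6, C 6–20. Cells were pre-incubated with compound for 48 h at 36.5 °C; the bath (pH 7.4) received benzamil 10 μM, forskolin 10 μM, then CFTRinh-172 20 μM.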

[2] = molecular target: T1, Purified recombinant NBD1 (Homo sapiens, UniProt P13569); test: Aggregation analysis using differential static light scattering (DSLS): thermal stability of NBD1; format: binding; settings: NBD1 0.2 mg/ml; Tagg of compound well minus average Tagg of DMSO control wells
T1 construct: Purified recombinant NBD1 was produced using previously described methods; made in house
T1 sequence (P13569 423-646 limits assumed): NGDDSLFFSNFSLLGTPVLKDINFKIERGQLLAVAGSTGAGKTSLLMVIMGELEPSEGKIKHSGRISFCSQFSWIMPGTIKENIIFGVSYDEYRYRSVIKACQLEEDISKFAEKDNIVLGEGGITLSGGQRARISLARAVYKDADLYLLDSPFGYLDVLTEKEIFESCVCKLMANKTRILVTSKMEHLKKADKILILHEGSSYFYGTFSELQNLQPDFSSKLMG
Summary of the method: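 ΔTagg is compound-well aggregation temperature minus the DMSO-control mean, each Tagg being the inflection point of light scattering measured by DSLS during a 1 °C/min ramp up to 70 °C. The protein was purified NBD1 (0.2 mg/ml) in pH 7.6 buffer containing 2 mM ATP, 5 mM MgCl2 and 1% glycerol.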

| SMILES | TECC (test agent AUC divided by VX-809 AUC) [1] | DSLS (ΔTagg) [2] |
| --- | --- | --- |
| CN1CC(C)(C)CCCC(C)(c2cccc(CCC(=O)O)c2)c2cnc([nH]2)-c2cc(ccc2F)Oc2c(F)cc3[nH]ccc3c2CCC1=O (single isomer, unassigned) [Compound 49B, 3-[3-(23,29-Difluoro-6,10,10,12-tetramethyl-13-oxo-25-oxa-3,12,20,31-tetrazapentacyclo-[24.3.1.12,5.016,24.017,21]-hentriaconta-1(30),2,4,16,18,21,23,26,28-nonaen-6-yl)phenyl]propanoic acid] | A (a TECC value less than 3 is marked “A”) | C (a value greater than 10 °C and less than or equal to 25 °C is marked “C”) |
| CC1(C)CCOCC(c2cccc(CCC(=O)O)c2)n2ccc(n2)-c2cc(ccc2F)Oc2c(F)cc3[nH]ccc3c2COC(=O)N1 (single isomer, unassigned) [Compound 96B, 3-[3-(23,29-difluoro-11,11-dimethyl-13-oxo-8,14,25-trioxa-5,12,20,31-tetrazapentacyclo[24.3.1.12,5.016,24.017,21]hentriaconta-1(30),2(31),3,16,18,21,23,26,28-nonaen-6-yl)phenyl]propanoic acid] | C (a value between 6 and 20 is marked “C”) | C (a value greater than 10 °C and less than or equal to 25 °C is marked “C”) |
| CC1CCC(C)(c2cccc(CCC(=O)O)c2)c2cnc([nH]2)-c2cc(ccc2F)Oc2c(F)cc3[nH]ccc3c2CCNC(=O)OC1 (stereo not drawn) [Compound 87, 3-[3-(23,29-Difluoro-6,9-dimethyl-12-oxo-11,25-dioxa-3,13,20,31-tetrazapentacyclo[24.3.1.12,5.016,24.017,21]hentriaconta-1(30),2,4,16(24),17(21),18,22,26,28-nonaen-6-yl)phenyl]propanoic acid] | B (a value between 3 and 6 is marked “B”) | C (a value greater than 10 °C and less than or equal to 25 °C is marked “C”) |
| CCOC(=O)Cc1cccc(C2(C)CCCC(C)(C)CN(C)C(=O)CCc3c(c(F)cc4[nH]ccc34)Oc3ccc(F)c(c3)-c3ncc2[nH]3)c1 (single isomer, unassigned) [Compound 64B, ethyl 2-[3-(23,29-difluoro-6,10,10,12-tetramethyl-13-oxo-25-oxa-3,12,20,31-tetrazapentacyclo-[24.3.1.12,5.016,24.017,21]hentriaconta-1(30),2,4,16,18,21,23,26,28-nonaen-6-yl)phenyl]acetate] | B (a value between 3 and 6 is marked “B”) | A (an ΔTagg value less than or equal to 5 °C is marked “A”) |
| CN1CC(C)(C)CCCC(C)(c2cccc(CCC(=O)NOCCO)c2)c2cnc([nH]2)-c2cc(ccc2F)Oc2c(F)cc3[nH]ccc3c2CCC1=O (single isomer, unassigned) [Compound 59, 3-[3-(23,29-difluoro-6,10,10,12-tetramethyl-13-oxo-25-oxa-3,12,20,31-tetrazapentacyclo[24.3.1.12,5.016,24.017,21]hentriaconta-1(30),2,4,16,18,21,23,26,28-nonaen-6-yl)phenyl]-N-(2-hydroxyethoxy)propanamide] | A (a TECC value less than 3 is marked “A”) | B (a value above 5 °C and less than or equal to 10 °C is marked “B”) |
| CN1CC(C)(C)CCCC(C)(c2ccc(CC(=O)O)cc2)c2cnc([nH]2)-c2cc(ccc2F)Oc2c(F)cc3[nH]ccc3c2CCC1=O (stereo not drawn) [Compound 63, 2-[4-(23,29-Difluoro-6,10,10,12-tetramethyl-13-oxo-25-oxa-3,12,20,31-tetrazapentacyclo[24.3.1.12,5.016,24.017,21]hentriaconta-1(30),2,4,16,18,21,23,26,28-nonaen-6-yl)phenyl]acetic acid] | A (a TECC value less than 3 is marked “A”) | B (a value above 5 °C and less than or equal to 10 °C is marked “B”) |
